Laboratory results as given in ChEMBL document CHEMBL5137095, “N-Benzyl Benzamide Derivatives as Selective Sub-Nanomolar Butyrylcholinesterase Inhibitors for Possible Treatment in Advanced Alzheimer's Disease” (J Med Chem, 2022).

Columns and labels:
[1] = Cmax in Sprague-Dawley rat at 10 mg/kg, IG measured after 48 hrs by LC-MS analysis; assay type: ADME, organism-based; design: time 48 hrs, dose 10 mg/kg, route ig; settings: in vivo, po
[2] = Plasma concentration in ICR mouse at 10 mg/kg, IG measured at 6 hrs by LC-MS analysis; assay type: ADME, organism-based; settings: po
[3] = Plasma concentration in ICR mouse at 10 mg/kg, IG measured at 4 hrs by LC-MS analysis; assay type: ADME, organism-based; settings: po
[4] = Cytotoxicity against human SH-SY5Y cells assessed as cell survival rate at 10 uM by MTT assay; assay type: toxicity, cell-based; settings: read-out: Activity
[5] = tested on: PC-12; experiment: Cytotoxicity against rat PC-12 cells assessed as reduction in cell viability at 10 uM by MTT assay; assay type: toxicity, cell-based; settings: pc-12, 10 µM
[6] = Brain concentration in ICR mouse at 10 mg/kg, IG measured at 0.5 hrs by LC-MS analysis; assay type: ADME, organism-based; settings: po, read-out: Ct
[7] = tested on: PC-12; experiment: Neuroprotective activity against H2O2-induced cell damage in rat PC-12 cells assessed as survival rate at 5 to 10 uM pretreated for 2 hrs followed by H2O2 addition and measured after 24 hrs by MTT assay; assay type: functional; settings: dose 5-10 µM, time 26 hrs
[8] = Cytotoxicity against mouse BV-2 cells assessed as cell survival rate at 10 uM by MTT assay; assay type: toxicity, cell-based; settings: read-out: Activity
[9] = tested on: BV-2; experiment: Cytotoxicity against mouse BV-2 cells assessed as reduction in cell viability at 10 uM by MTT assay; assay type: toxicity, cell-based; settings: bv-2, 10 µM
[10] = tested on: SH-SY5Y; experiment: Neuroprotective activity against amyloid beta (1 to 42)-induced cell damage in human SH-SY5Y cells assessed as cell survival rate at 25 uM pretreated for 2 hrs followed by amyloid beta (1 to 42) addition and measured after 24 hrs by MTT assay; assay type: functional; settings: time 26 hrs
[11] = Acute toxicity in ICR mouse assessed as increase in body weight at 1000 mg/kg, po measured after 14 days; assay type: organism-based; settings: in vivo, 336 h, time 14 day
[12] = Brain concentration in ICR mouse at 10 mg/kg, IG measured at 6 hrs by LC-MS analysis; assay type: ADME, organism-based; settings: po, read-out: Ct
[13] = target: T1, Cholinesterase (Homo sapiens, UniProt P06276); experiment: Binding affinity to human BChE assessed as dissociation constant by surface plasmon resonance assay
[14] = tested on: PC-12; experiment: Cytotoxicity against rat PC-12 cells assessed as reduction in cell viability at 20 uM by MTT assay; assay type: toxicity, cell-based; settings: pc-12, 20 µM
[15] = Plasma concentration in ICR mouse at 10 mg/kg, po measured at 0.25 hrs by LC-MS analysis; assay type: ADME, organism-based
[16] = Brain concentration in ICR mouse at 10 mg/kg, IG measured at 0.25 hrs by LC-MS analysis; assay type: ADME, organism-based; settings: po, read-out: Ct
[17] = tested on: SH-SY5Y; experiment: Cytotoxicity against human SH-SY5Y cells assessed as reduction in cell viability at 10 uM by MTT assay; assay type: toxicity, cell-based
[18] = Acute toxicity in ICR mouse assessed as death at 1000 mg/kg, po measured after 4 hrs; assay type: organism-based; settings: in vivo
[19] = Plasma concentration in ICR mouse at 10 mg/kg, po measured at 1 hr by LC-MS analysis; assay type: ADME, organism-based
[20] = tested on: SH-SY5Y; experiment: Neuroprotective activity against amyloid beta (1 to 42)-induced cell damage in human SH-SY5Y cells assessed as cell survival at 2 uM pretreated for 2 hrs followed by amyloid beta (1 to 42) addition and measured after 24 hrs by MTT assay; assay type: functional; settings: time 26 hrs, read-out: Activity
[21] = Tmax in Sprague-Dawley rat at 10 mg/kg, IG measured after 48 hrs by LC-MS analysis; assay type: ADME, organism-based; settings: in vivo, po
[22] = Cmax in Sprague-Dawley rat at 10 mg/kg, iv measured after 48 hrs by LC-MS analysis; assay type: ADME, organism-based; design: dose 10 mg/kg, time 48 hrs, route iv; settings: in vivo
[23] = Brain concentration in ICR mouse at 10 mg/kg, IG measured at 2 hrs by LC-MS analysis; assay type: ADME, organism-based; settings: po, read-out: Ct
[24] = target: T1, Cholinesterase; experiment: Inhibition of human BChE assessed as inhibition constant
[25] = Tmax in Sprague-Dawley rat at 10 mg/kg, iv measured after 48 hrs by LC-MS analysis; assay type: ADME, organism-based; settings: in vivo
[26] = n-octanol-water partition coefficient, log P of the compound by HPLC analysis; assay type: physicochemical
[27] = Oral bioavailability in Sprague-Dawley rat at 10 mg/kg measured after 48 hrs by LC-MS analysis; assay type: ADME, organism-based; settings: in vivo
[28] = Microsomal stability in human liver microsomes assessed as half life measured after 120 mins; assay type: ADME, Microsome
[29] = Elimination half life in Sprague-Dawley rat at 10 mg/kg, IG measured after 48 hrs by LC-MS analysis; assay type: ADME, organism-based; settings: in vivo, po, read-out: beta t1/2 (converted)
[30] = target: T1, Cholinesterase; experiment: Inhibition of human BChE using acetylthiocholine iodide or butyrylthiocholine iodide as substrate preincubated for 5 mins followed by substrate addition by Ellman's method
[31] = Permeability of compound incubated for 18 hrs by PAMPA-BBB assay; assay type: ADME; settings: read-out: permeability
[32] = Brain concentration in ICR mouse at 10 mg/kg, IG measured at 4 hrs by LC-MS analysis; assay type: ADME, organism-based; settings: po, read-out: Ct
[33] = tested on: HT-22; experiment: Cytotoxicity against mouse HT-22 cells assessed as reduction in cell viability at 10 uM by MTT assay; assay type: toxicity, cell-based; settings: ht-22, 10 µM
[34] = tested on: BV-2; experiment: Cytotoxicity against mouse BV-2 cells assessed as reduction in cell viability at 20 uM by MTT assay; assay type: toxicity, cell-based; settings: bv-2, 20 µM
[35] = tested on: SH-SY5Y; experiment: Cytotoxicity against human SH-SY5Y cells assessed as reduction in cell viability at 20 uM by MTT assay; assay type: toxicity, cell-based
[36] = Elimination half life in Sprague-Dawley rat at 10 mg/kg, iv measured after 48 hrs by LC-MS analysis; assay type: ADME, organism-based; settings: in vivo, read-out: beta t1/2 (converted)
[37] = Cytotoxicity against mouse HT-22 cells assessed as cell survival rate at 10 uM by MTT assay; assay type: toxicity, cell-based; settings: read-out: Activity
[38] = Brain concentration in ICR mouse at 10 mg/kg, IG measured at 1 hr by LC-MS analysis; assay type: ADME, organism-based; settings: po, read-out: Ct
[39] = tested on: HT-22; experiment: Cytotoxicity against mouse HT-22 cells assessed as reduction in cell viability at 20 uM by MTT assay; assay type: toxicity, cell-based; settings: ht-22, 20 µM
[40] = Cytotoxicity against rat PC-12 cells assessed as cell survival rate at 10 uM by MTT assay; assay type: toxicity, cell-based; settings: read-out: Activity
[41] = Plasma concentration in ICR mouse at 10 mg/kg, IG measured at 0.5 hrs by LC-MS analysis; assay type: ADME, organism-based; settings: po
[42] = AUC (0 to infinitive) in Sprague-Dawley rat at 10 mg/kg, IG measured after 48 hrs by LC-MS analysis; assay type: ADME, organism-based; design: dose 10 mg/kg, time 48 hrs, route ig; settings: in vivo, po
[43] = AUC (0 to infinitive) in Sprague-Dawley rat at 10 mg/kg, iv measured after 48 hrs by LC-MS analysis; assay type: ADME, organism-based; design: time 48 hrs, dose 10 mg/kg, route iv; settings: in vivo
[44] = Acute toxicity in ICR mouse assessed as effect on consumption of water and food at 1000 mg/kg, po measured after 14 days; assay type: organism-based; settings: in vivo, 336 h, time 14 day
[45] = Plasma concentration in ICR mouse at 10 mg/kg, IG measured at 2 hrs by LC-MS analysis; assay type: ADME, organism-based; settings: po

T1 sequence (P06276 whole entry): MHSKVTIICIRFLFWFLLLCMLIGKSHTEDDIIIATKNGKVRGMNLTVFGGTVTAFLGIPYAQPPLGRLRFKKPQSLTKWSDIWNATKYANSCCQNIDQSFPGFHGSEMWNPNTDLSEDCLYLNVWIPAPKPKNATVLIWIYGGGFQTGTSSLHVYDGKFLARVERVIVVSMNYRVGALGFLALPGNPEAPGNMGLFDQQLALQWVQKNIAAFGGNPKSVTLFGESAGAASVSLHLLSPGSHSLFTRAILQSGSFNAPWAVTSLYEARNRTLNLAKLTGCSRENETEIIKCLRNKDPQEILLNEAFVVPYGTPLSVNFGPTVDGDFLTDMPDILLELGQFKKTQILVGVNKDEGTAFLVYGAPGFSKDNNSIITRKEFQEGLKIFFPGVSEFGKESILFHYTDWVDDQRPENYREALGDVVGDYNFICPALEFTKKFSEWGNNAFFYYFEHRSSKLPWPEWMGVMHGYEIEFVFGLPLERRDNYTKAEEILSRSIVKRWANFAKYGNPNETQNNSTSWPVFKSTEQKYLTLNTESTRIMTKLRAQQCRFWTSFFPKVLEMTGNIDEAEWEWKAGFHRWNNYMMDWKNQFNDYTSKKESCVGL

With CCN(CC)Cc1ccccc1CNC(=O)c1cccc(NC(=O)c2ccc(F)cc2)c1 the Cmax [1] was 36.4 ng/mL, the concentration at 6 h [2] was 2.95 ng/mL and the concentration at 4 h [3] was 17.4 ng/mL. The viability at 10 µM [4] was greater than 70%, the Activity [5] was “Non-Toxic” and the concentration at 0.5 h [6] was 26.8 ng/g. For the same compound, the Activity [7] was 61.7%, the viability at 10 µM [8] was greater than 70% and the Activity [9] was “Non-Toxic”. For the same compound, the Activity [10] was 64.12%, the Activity [11] was “Non-Toxic” and the concentration at 6 h [12] was 15.3 ng/g. The Kd [13] was 0.37 nM, the Activity [14] was “Non-Toxic” and the concentration at 0.25 h [15] was 25.7 ng/mL. The concentration at 0.25 h [16] was 25.4 ng/g, the Activity [17] was “Non-Toxic” and the Activity [18] was “Non-Toxic”. The concentration at 1 h [19] was 20.9 ng/mL, the viability at 2 µM [20] was 68% and the Tmax [21] was 0.63 h. It also gave a Cmax [22] of 1640 ng/mL, a concentration at 2 h [23] of 17.7 ng/g and a Ki [24] of 0.61 nM. It also gave a Tmax [25] of 6 min, a logP [26] of 1.7 and a bioavailability [27] of 21.7%. It also gave a half-life [28] of 1.55 h, a half-life [29] of 28.1 h and an IC50 [30] of 0.08 nM. For the same compound, the Papp at 18 h [31] was 10.2 ×10⁻⁶ cm/s, the concentration at 4 h [32] was 16.4 ng/g and the Activity [33] was “Non-Toxic”. The Activity [34] was “Non-Toxic”, the Activity [35] was “Non-Toxic” and the half-life [36] was 17.2 h. For the same compound, the viability at 10 µM [37] was greater than 70%, the concentration at 1 h [38] was 37.5 ng/g and the Activity [39] was “Non-Toxic”. It also gave a viability at 10 µM [40] greater than 70%, a concentration at 0.5 h [41] of 30.2 ng/mL and an AUC(0-inf) [42] of 497 ng·h/mL. The AUC(0-inf) [43] was 2170 ng·h/mL, the Activity [44] was “Non-Toxic” and the concentration at 2 h [45] was 18.4 ng/mL.
